Literature values in patent US20070281995A1, “Creatine analog prodrugs, compositions and uses thereof” (XenoPort, Inc., priority 2006, published 2007).
Read-outs that look alike come from different tables or passages of the source.

Key:
[1] = animals fed a diet containing up to 1%
[2] = healthy volunteers, oral creatine administration
[3] = not given; remark: listed apart in the source

In the case of `CN(CC(=O)O)C(=N)N.O` [creatine monohydrate], the adverse side effects (athletes and body builders, 2-3 gm/day) is listed as “without adverse side effects”.
For `CN(CC(=O)O)C(=N)NP(=O)(O)O` [creatine phosphate], the adverse side effects (patients with cardiac diseases, intravenous injection up to 8 gm/day) is given as “without adverse side effects”.
In the case of `NC1=NCCN1CC(=O)O` [cyclocreatine], the adverse effects [1] is given as “do not exhibit adverse effects”.
In the case of `CN(CC(=O)O)C(=N)N` [creatine, Creatine], the “increase of cerebral creatine phosphate” value [2] is given as “about 10%”, the “overall increase in creatine phosphate levels” value ([3]; creatine supplementation, typically takes weeks) is given as under 50% and the “duration of increases in tissue creatine phosphate levels” value ([3]; following oral creatine supplementation) is given as over 14 days.
